# Results from ChEMBL document CHEMBL3046274, “Toxicity of imidacloprid to developmental stages of Rhynchophorus ferrugineus (Curculionidae: Coleoptera): Laboratory and field tests” (Crop Prot, 2006).
# Tests used:
# Type in all cases: functional
# [1] = system: Rhynchophorus ferrugineus; assay: Pesticidal activity against Rhynchophorus ferrugineus (red palm weevil) larvae infested date palm tree assessed as mortality of collected live stage at 20 ml/4l of water applied through soil-drench irrigation measured at 3 weeks post-treatment within 48 hr after emergence relative to control
# [2] = system: Rhynchophorus ferrugineus; assay: Pesticidal activity against Rhynchophorus ferrugineus (red palm weevil) larvae assessed as mortality at 2 ppm, po at 90 hr post-treatment relative to control
# [3] = system: Rhynchophorus ferrugineus; assay: Pesticidal activity against Rhynchophorus ferrugineus (red palm weevil) cocoon assessed as mortality at 0.5 ppm administered by dipping for 3 min measured at 90 hr post-treatment relative to control
# [4] = system: Rhynchophorus ferrugineus; assay: Contact toxicity against Rhynchophorus ferrugineus (red palm weevil) adults assessed as time required for 100% mortality at 3.5 ml/l for 5 min
# [5] = system: Rhynchophorus ferrugineus; assay: Pesticidal activity against Rhynchophorus ferrugineus (red palm weevil) larvae assessed as mortality at 4 ppm, po at 48 hr post-treatment relative to control
# [6] = system: Rhynchophorus ferrugineus; assay: Contact toxicity against Rhynchophorus ferrugineus (red palm weevil) adults assessed as time required for 50% mortality at 2.5 ml/l for 5 min
# [7] = system: Rhynchophorus ferrugineus; assay: Pesticidal activity against Rhynchophorus ferrugineus (red palm weevil) cocoon assessed as mortality at 1.5 ppm administered by dipping for 3 min measured at 24 hr post-treatment relative to control
# [8] = system: Rhynchophorus ferrugineus; assay: Pesticidal activity against Rhynchophorus ferrugineus (red palm weevil) larvae assessed as mortality at 1000 ppm administered topically at 36 hr post-treatment
# [9] = system: Rhynchophorus ferrugineus; assay: Pesticidal activity against adult Rhynchophorus ferrugineus (red palm weevil) assessed as mortality at 100 ppm administered topically at 36 hr post-treatment
# [10] = system: Rhynchophorus ferrugineus; assay: Pesticidal activity against adult Rhynchophorus ferrugineus (red palm weevil) assessed as mortality at 0.5 ppm, po at 18 hr post-treatment relative to control
# [11] = system: Rhynchophorus ferrugineus; assay: Contact toxicity against Rhynchophorus ferrugineus (red palm weevil) adults assessed as time required for 100% mortality at 2.5 ml/l for 5 min
# [12] = system: Rhynchophorus ferrugineus; assay: Pesticidal activity against Rhynchophorus ferrugineus (red palm weevil) cocoon assessed as mortality at 1 ppm administered by dipping for 3 min measured at 72 hr post-treatment relative to control
# [13] = system: Rhynchophorus ferrugineus; assay: Pesticidal activity against adult Rhynchophorus ferrugineus (red palm weevil) assessed as mortality at 1 ppm, po at 48 hr post-treatment relative to control
# [14] = system: Rhynchophorus ferrugineus; assay: Pesticidal activity against Rhynchophorus ferrugineus (red palm weevil) cocoons assessed as time required for total mortality at 3.5 ml/l administered by dipping for 5 secs
# [15] = system: Rhynchophorus ferrugineus; assay: Contact toxicity against Rhynchophorus ferrugineus (red palm weevil) adults assessed as time required for 50% mortality at 3.5 ml/l for 5 min
# [16] = system: Rhynchophorus ferrugineus; assay: Pesticidal activity against Rhynchophorus ferrugineus (red palm weevil) cocoon assessed as mortality at 4 ppm administered by dipping for 3 min measured at 114 hr post-treatment relative to control
# [17] = system: Rhynchophorus ferrugineus; assay: Contact toxicity against Rhynchophorus ferrugineus (red palm weevil) adults assessed as time required for 50% reversible knockdown at 3.5 ml/l for 2 min
# [18] = system: Rhynchophorus ferrugineus; assay: Contact toxicity against Rhynchophorus ferrugineus (red palm weevil) adults assessed as time required for 100% mortality at 2.5 ml/l for 2 min
# [19] = system: Rhynchophorus ferrugineus; assay: Contact toxicity against Rhynchophorus ferrugineus (red palm weevil) adults assessed as time required for 50% reversible knockdown at 2.5 ml/l for 5 min
# [20] = system: Rhynchophorus ferrugineus; assay: Pesticidal activity against Rhynchophorus ferrugineus (red palm weevil) larvae assessed as mortality at 0.5 ppm, po at 48 hr post-treatment relative to control
# [21] = system: Rhynchophorus ferrugineus; assay: Pesticidal activity against Rhynchophorus ferrugineus (red palm weevil) cocoon assessed as mortality at 4 ppm administered by dipping for 3 min measured at 48 hr post-treatment relative to control
# [22] = system: Rhynchophorus ferrugineus; assay: Pesticidal activity against Rhynchophorus ferrugineus (red palm weevil) larvae assessed as mortality at 0.5 ppm, po at 72 hr post-treatment relative to control
# [23] = system: Rhynchophorus ferrugineus; assay: Contact toxicity against Rhynchophorus ferrugineus (red palm weevil) adults assessed as time required for 100% reversible knockdown at 3.5 ml/l for 2 min
# [24] = system: Rhynchophorus ferrugineus; assay: Pesticidal activity against Rhynchophorus ferrugineus (red palm weevil) cocoon assessed as mortality at 2 ppm administered by dipping for 3 min measured at 90 hr post-treatment relative to control
# [25] = system: Rhynchophorus ferrugineus; assay: Contact toxicity against Rhynchophorus ferrugineus (red palm weevil) adults assessed as time required for 50% mortality at 1.5 ml/l for 5 min
# [26] = system: Rhynchophorus ferrugineus; assay: Pesticidal activity against Rhynchophorus ferrugineus (red palm weevil) larvae assessed as mortality at 100 ppm administered topically at 72 hr post-treatment
# [27] = system: Rhynchophorus ferrugineus; assay: Contact toxicity against Rhynchophorus ferrugineus (red palm weevil) adults assessed as time required for 100% reversible knockdown at 3.5 ml/l for 5 min
# [28] = system: Rhynchophorus ferrugineus; assay: Pesticidal activity against Rhynchophorus ferrugineus (red palm weevil) cocoon assessed as mortality at 20 ppm administered by dipping for 3 min measured at 18 hr post-treatment relative to control
# [29] = system: Rhynchophorus ferrugineus; assay: Pesticidal activity against Rhynchophorus ferrugineus (red palm weevil) cocoon assessed as mortality at 0.5 ppm administered by dipping for 3 min measured at 48 hr post-treatment relative to control
# [30] = system: Rhynchophorus ferrugineus; assay: Pesticidal activity against Rhynchophorus ferrugineus (red palm weevil) larvae assessed as mortality at 1 ppm, po at 24 hr post-treatment relative to control
# [31] = system: Rhynchophorus ferrugineus; assay: Pesticidal activity against adult Rhynchophorus ferrugineus (red palm weevil) infested date palm tree assessed as mortality of collected live stage at 20 ml/4l of water applied through soil-drench irrigation measured after 3 weeks relative to control
# [32] = system: Rhynchophorus ferrugineus; assay: Contact toxicity against Rhynchophorus ferrugineus (red palm weevil) adults assessed as time required for 100% reversible knockdown at 1.5 ml/l for 2 min
# [33] = system: Rhynchophorus ferrugineus; assay: Pesticidal activity against Rhynchophorus ferrugineus (red palm weevil) cocoon assessed as mortality at 1 ppm administered by dipping for 3 min measured at 24 hr post-treatment relative to control
# [34] = system: Rhynchophorus ferrugineus; assay: Pesticidal activity against adult Rhynchophorus ferrugineus (red palm weevil) assessed as mortality at 0.5 ppm, po at 24 hr post-treatment relative to control
# [35] = system: Rhynchophorus ferrugineus; assay: Pesticidal activity against Rhynchophorus ferrugineus (red palm weevil) cocoon assessed as mortality at 1.5 ppm administered by dipping for 3 min measured at 48 hr post-treatment relative to control
# [36] = system: Rhynchophorus ferrugineus; assay: Pesticidal activity against Rhynchophorus ferrugineus (red palm weevil) cocoons assessed as time required for total mortality at 1.5 ml/l administered by dipping for 30 secs
# [37] = system: Rhynchophorus ferrugineus; assay: Pesticidal activity against Rhynchophorus ferrugineus (red palm weevil) larvae assessed as mortality at 4 ppm, po at 114 hr post-treatment relative to control
# [38] = system: Rhynchophorus ferrugineus; assay: Contact toxicity against Rhynchophorus ferrugineus (red palm weevil) adults assessed as time required for 100% reversible knockdown at 2.5 ml/l for 5 min
# [39] = system: Rhynchophorus ferrugineus; assay: Pesticidal activity against adult Rhynchophorus ferrugineus (red palm weevil) assessed as mortality at 500 ppm administered topically at 48 hr post-treatment
# [40] = system: Rhynchophorus ferrugineus; assay: Pesticidal activity against adult Rhynchophorus ferrugineus (red palm weevil) assessed as mortality at 2 ppm, po at 18 hr post-treatment relative to control
# [41] = system: Rhynchophorus ferrugineus; assay: Pesticidal activity against Rhynchophorus ferrugineus (red palm weevil) cocoons assessed as time required for total mortality at 3.5 ml/l administered by dipping for 10 secs
smiles,measurement,setting,value
O=[N+]([O-])/N=C1\NCCN1Cc1ccc(Cl)nc1 [IMIDACLOPRID],Activity,[1],100%
same,Activity,[2],100%
same,Activity,[3],38.9%
same,Time,[4],4.2 days
same,Activity,[5],100%
same,Time,[6],3.2 days
same,Activity,[7],0%
same,Activity,[8],72.2%
same,Activity,[9],38.9%
same,Activity,[10],0%
same,Time,[11],7.2 days
same,Activity,[12],0%
same,Activity,[13],38.9%
same,Time,[14],5.9 days
same,Time,[15],2.2 days
same,Activity,[16],72.2%
same,Time,[17],1.1 days
same,Time,[18],13.1 days
same,Time,[19],1.1 days
same,Activity,[20],38.9%
same,Activity,[21],44.4%
same,Activity,[22],38.9%
same,Time,[23],3.2 days
same,Activity,[24],72.2%
same,Time,[25],4.3 days
same,Activity,[26],0%
same,Time,[27],2.1 days
same,Activity,[28],0%
same,Activity,[29],0%
same,Activity,[30],0%
same,Activity,[31],100%
same,Time,[32],9 days
same,Activity,[33],0%
same,Activity,[34],0%
same,Activity,[35],0%
same,Time,[36],9.6 days
same,Activity,[37],100%
same,Time,[38],2.2 days
same,Activity,[39],72.2%
same,Activity,[40],100%
same,Time,[41],6 days
